pIC50: −log10 of the molar value.
How the values were obtained:
BaF3 [1] = assay: Antiproliferative activity against mouse BaF3 cells transfected with ETV6-wild type TRKA assessed as cell viability incubated for 72 hrs by CCK8 assay; format: functional, cell-based; conditions: BaF3, 72 h
BaF3 [2] = format: functional, cell-based; conditions: Mus musculus, BaF3, 72 h
BaF3 [3] = assay: Antiproliferative activity against mouse BaF3 cells transfected with ETV6-wild type TRKB assessed as cell viability incubated for 72 hrs by CCK8 assay; format: functional, cell-based; conditions: BaF3, 72 h
BaF3 [4] = assay: Antiproliferative activity against mouse BaF3 cells transfected with ETV6-wild type TRKC assessed as cell viability incubated for 72 hrs by CCK8 assay; format: functional, cell-based; conditions: BaF3, 72 h
BaF3 [5] = assay: animal or person; format: functional; conditions: Mus musculus, BaF3, po; read-out: TGI
[6] = Metabolic stability in human liver microsomes assessed as half life at 1 uM measured upto 90 mins in presence of NADPH regenerating system by LC-MS/MS analysis; format: ADME, Microsome
BaF3 [7] = assay: animal or person; format: functional; conditions: Mus musculus, BaF3, po; read-out: TGI; remark: listed apart in the source

With `C[C@@H]1CCc2ncc(F)cc2[C@H]2CCCN2c2ccn3ncc(c3n2)C(=O)N1` [SELITRECTINIB] as the compound, how does the pIC50 (BaF3 [1]) read?
Its pIC50 is 8.96.

What about the pIC50 (BaF3 [2]) of the same compound?
The pIC50 was 7.14.

What about the pIC50 (BaF3 [3]) of the same compound?
Its pIC50 is 8.85.

And the pIC50 (BaF3 [4])?
Its pIC50 is 8.80.

What about the inhibition in vivo at 100 mg/kg (BaF3 [5]) of the same compound?
Its inhibition in vivo at 100 mg/kg is 64%.

With `Cn1cc(-c2cnn3ccc(N4CCC[C@@H]4c4cc(F)ccc4OCC(F)F)nc23)cn1` as the compound, how does the half-life at 1 µM [6] read?
Its half-life at 1 µM is 8.3 min.

Which inhibition in vivo at 15 mg/kg (BaF3 [7]) does the source give for `O=C(Nc1cnn2ccc(N3CCC[C@@H]3c3cc(F)ccc3F)nc12)N1CC[C@H](O)C1` [LAROTRECTINIB] here?
Its inhibition in vivo at 15 mg/kg is 70%.

And the half-life at 1 µM [6]?
The half-life at 1 µM was 365 min.

With `Cn1cc(-c2cnn3ccc(N4CCC[C@@H]4c4cc(F)ccc4F)nc23)cn1` as the compound, how does the half-life at 1 µM [6] read?
Its half-life at 1 µM is 3 min.

With `C[C@@H](Nc1ccn2ncc(-c3cnn(C)c3)c2n1)c1cc(F)ccc1OCC(F)F` as the compound, how does the half-life at 1 µM [6] read?
The half-life at 1 µM was 32.4 min.

Source: ChEMBL document CHEMBL5034031, “Discovery of Next-Generation Tropomyosin Receptor Kinase Inhibitors for Combating Multiple Resistance Associated with Protein Mutation” (J Med Chem, 2021)
